Patent US8053413B2, “Methods for treating sleep disorders by cholecystokinin (CCK) receptor B antagonists” (The Board of Trustees of the University of Illinois, priority 2005, dated 2011)

Tests used:
[1] = tested on: sleep apnea (OSAS, central apnea); settings: cited from earlier work; for effect in individuals with obstructive sleep apnea (OSAS) / effect in individuals with central apnea: patients; for effect in individuals with central apnea: primarily central apneas
sleep apnea = settings: cited from earlier work
[2] = tested on: spontaneous sleep apnea in the rat; assay: Spontaneous sleep apnea in the rat: plethysmograph, EEG and EMG recording after i.p. injection; format: in vivo, Sprague-Dawley rats; settings: for SP apnea index, % of placebo value: spontaneous (SP) apneas, p<0.03; for efficacy against sleep apnea (rate of apneas per hour of NREM and REM sleep): 6 hours polygraphic recording, i.p.
Method: Adult, male Sprague-Dawley rats (Sasco-King, Wilmington, Mass.), usually 8 per test group with an average weight of 300 grams, are maintained on a 12-hour light/12-hour dark cycle for one week. The animals are housed in individual cages and given ad libitum access to food and water. Following the one week of acclimatization, animals are subjected to the following surgical procedures.
Acclimatized animals are anesthetized using a mixture of ketamine (80 mg/kg) and xylazine (5 mg/kg) at a volume of 1 ml/kg body weight for the implantation of cortical electrodes for electroencephalogram (EEG) recording and neck muscle electrodes for electromyogram (EMG) recording. The surface of the skull is exposed surgically and cleaned with a 20% solution of hydrogen peroxide followed by a solution of 95% isopropyl alcohol. A dental preparation of sodium fluoride (FLURA-GEL; Saslow Dental, Mt. Prospect, Ill.) is subsequently applied to harden the skull above the parietal cortex and allowed to remain in place for 5 minutes. The fluoride mixture is then removed from the skull above the parietal cortex. The EEG electrodes consisting of four stainless steel machine screws, having leads attached thereto, are threaded into the skull to rest on the dura over the parietal cortex. A thin layer of JUSTI resin cement (Saslow Dental, Mt. Prospect, Ill.) is applied to cover the screw heads (of screws implanted in the skull) and surrounding skull to further promote the adhesion of the implant. EMG electrodes consisting of two ball-shaped wires are inserted into the bilateral neck musculature. All leads (i.e., EEG and EMG leads) are soldered to a miniature connector (39F1401; Newark Electronics, Schaumburg, Ill.). The entire assembly is subsequently fixed to the skull with dental cement.
Physiological parameters from each animal prepared as described herein are recorded on two to five occasions in random order, with recordings for an individual animal separated by at least 3 days. Fifteen minutes prior to each recording an animal receives a systemic injection (1 mL/kg intraperitoneal bolus) of either saline (control) or an active dose of a drug treatment.
Respiration is recorded by placing each animal, unrestrained, inside a single chamber plethysmograph (PLYUNIR/U; Buxco Electronics, Sharon, Conn.; dimension 6 inches×10 inches×6 inches) ventilated with a bias flow of fresh room air at a rate of 2 Liters/minute. A cable plugged onto the animal's connector and passed through a sealed port is used to collect the bioelectrical activity from the head implant.
Sleep and waking states are assessed using conventional software (Benington, et al. (1994) Sleep 17:28-36) to analyze the biparietal EEG and nuchal EMG signals on 10-second epochs. The software discriminates wakefulness (W) as a high frequency low amplitude EEG with a concomitant high EMG tone, NREM sleep by increased spindle and […] activity together with decreased EMG tone, and REM sleep by a […] activity and an absence of EMG tone. Sleep efficiency is measured as the percentage of total recorded epochs staged as NREM or REM sleep.
An accepted physiological animal model of spontaneous sleep apnea in the rat (see Radulovacki & Carley (2002) In: Sleep-Related Breathing Disorder: Experimental Models and Therapeutic Potential (Carley & Radulovacki, eds.) Marcel Dekker: New York, pp. 3-16) is used to assess the effects of test drugs. More specifically, sleep apneas, defined as cessation of respiratory effort for at least 2.5 seconds, are scored for each recording session and associated with the stage of sleep in which they occur (i.e., NREM or REM sleep). The duration requirement of 2.5 seconds represents at least two “missed” breaths, which is therefore analogous to a 10 second apnea duration requirement in humans, which also reflects two to three missed breaths. […]

central apneas = settings: rats with frequent central apneas during all sleep stages; cited from earlier work
[3] = tested on: CCK-induced depolarization of nodose ganglion neurons; settings: isolated nodose ganglion cells; cited from earlier work
[4] = individuals with obstructive sleep apnea

In the case of `CCN1CC(CCN2CCOCC2)C(c2ccccc2)(c2ccccc2)C1=O` (centres unmarked) [doxapram], the “average arterial oxygen saturation” value [1, 4] is given as “does not alter” and the length of apneas [1, 4] is given as “decreasing the length of apneas”.
In the case of `CCCCCc1cc(O)c2c(c1)OC(C)(C)[C@@H]1CCC(C)=C[C@@H]21` [Δ9-tetrahydrocannibinol], the “reduction of apnea in an animal model of sleep apnea” value (sleep apnea) is given as “reduce sleep apneas”.
In the case of `Cc1cc(C)c(NC(=O)C[C@H](CC(=O)O)c2cccc3ccccc23)c(C(=O)N2CCC3(CCCC3)CC2)c1` [CR2945], the “SP apnea index, % of placebo value” ([2]; 0.5 mg/kg i.p. in DMSO, rats) is reported as 42%, the “SP apnea index, % of placebo value” ([2]; 5.0 mg/kg i.p. in DMSO, rats) is reported as 31% and the “REM SP apnea index” value ([2]; all four doses 0.005, 0.05, 0.5, 5.0 mg/kg i.p., p<0.04 for each) is reported as “significantly reduced”. For the same molecule, the “frequency of spontaneous central apnea expression” value ([2]; all sleep stages, rats, systemic injection) was “significantly reduced” and the apnea duration ([2]; any dose 0.005-5.0 mg/kg i.p., p=0.7) was “not affected”.
In the case of `Cc1nccn1CC1CCc2c(c3ccccc3n2C)C1=O` (centres unmarked) [ondansetron], the “effect in individuals with obstructive sleep apnea (OSAS)” value (“effect in individuals … (OSAS)” below) [1] is given as “failed to demonstrate any effect” and the apnea frequency (central apneas) is given as “reduce apnea frequency”.
For `Nc1ncnc2c1ncn2[C@@H]1O[C@H](CO)[C@@H](O)[C@H]1O` [adenosine], the “reduction of apnea in an animal model of sleep apnea” value (sleep apnea) is listed as “somewhat effective in reducing apnea”.
In the case of `CC(=O)Nc1nnc(S(N)(=O)=O)s1` [acetazolamide], the “effect in individuals … (OSAS)” value [1] is listed as “increase in obstructive apneas” and the “effect in individuals with central apnea” value [1] is listed as “variable improvement”.
In the case of `COc1cc(N)c(Cl)cc1C(=O)N[C@H]1CN2CCC1CC2` [R-zacopride], the apnea frequency (central apneas) is given as “reduce apnea frequency”.
In the case of `C=CCN1CC[C@]23c4c5ccc(O)c4O[C@H]2C(=O)CC[C@@]3(O)[C@H]1C5` [naloxone], the “effect in individuals … (OSAS)” value [1] is given as “only slightly helpful”.
For `CNCCCC1c2ccccc2C=Cc2ccccc21` [protriptyline], the “effect in individuals … (OSAS)” value [1] is given as “variable results” and the side effects ([1]; several small trials in individuals with OSAS) is given as “frequent and significant side effects”.
In the case of `O=C1CC2(CCCC2)CC(=O)N1CCCCN1CCN(c2ncccn2)CC1` [Buspirone], the post-surgical apneustic breathing ([1]; one child) is listed as “eliminate post-surgical apneustic breathing” and the “patients with reduced apnea index” value ([1]; patients with sleep apnea syndrome) is listed as 4 of 5.
With `CCCCCN(CCCCC)C(=O)C(CCC(=O)O)NC(=O)c1ccc(Cl)c(Cl)c1` (centres unmarked) [lorglumide] the “efficacy against sleep apnea (rate of apneas per hour of NREM and REM sleep)” value ([2]; rats) was “dose-dependent efficacy”.
For `Cc1cccc(NC(=O)N[C@@H]2N=C(c3ccccc3)c3ccccc3N(C)C2=O)c1` [L-365,260], the “efficacy against sleep apnea (rate of apneas per hour of NREM and REM sleep)” value ([2]; rats) is given as “dose-dependent efficacy” and the “potency in blocking CCK-induced depolarization of nodose ganglion neurons” value [3] is given as “less potent”.
In the case of `Cn1c(=O)c2[nH]cnc2n(C)c1=O` [theophylline], the “effect in individuals … (OSAS)” value [1] is listed as “of no use” and the “effect in individuals with central apnea” value [1] is listed as “may benefit”.
In the case of `CN1C(=O)[C@@H](NC(=O)c2cc3ccccc3[nH]2)N=C(c2ccccc2)c2ccccc21` [devazepide], the “efficacy against sleep apnea (rate of apneas per hour of NREM and REM sleep)” value ([2]; rats) is listed as “dose-dependent efficacy” and the “potency in blocking CCK-induced depolarization of nodose ganglion neurons” value [3] is listed as “highly potent”.
In the case of medroxyprogesterone, the “effect in individuals … (OSAS)” value [1] is given as “no consistent benefit”.
For `CN1CCN2c3ncccc3Cc3ccccc3C2C1` (centres unmarked) [mirtazapine], the “reduction of apnea frequency” value ([1]; one study of OSAS patients) is listed as 50% and the apnea frequency (central apneas) is listed as “reduce apnea frequency”.
